Experimental data reported in patent publication US8785399B2, “Antibacterial peptides” (Spiderbiotech S.R.A., priority 2008, dated 2014).

Tested on: fresh human erythrocytes
Assay type: cell-based
Experimental: The haemolysis assay was adapted from the method of Shin et al. (Ref. 12). Fresh human erythrocytes were used to test the haemolytic activities of the peptides. Whole blood was collected in a sterile tube with a 4% w/v sodium citrate solution (in a 1:10 ratio sodium citrate:whole blood), put in ice and centrifuged at 1000 g for 5 minutes at 4° C.
The supernatant, including the leucocytes above the erythrocyte pellet, was removed carefully and discarded. Intact erytrocytes were washed three times with 2 volumes (1 mL) of prechilled pyrogen-free saline (PBS 1×). Erythrocyte suspensions were adjusted to 0.8% (8 ul in 1 mL or 160 uL in 20 mL) of PBS 1×. […]
Subsequently, intact erythrocyte were pelletted by centrifugation at 1000 g for 5 minutes at 4° C. One hundred microliters of supernatant from each well was transferred accordingly to a new 96-well microtiter plate, and the amount of haemoglobin released into the supernatant was determined by reading the absorbance at 414 nm against a reference wavelength of 490 nm. […]
The haemolysis was determined by two different assays as described in Example VIII. In Tables 7-9 all haemolysis percentage values, determined by UV-VIS spectrophotometry, are reported. […]

In the case of Triton X 100, the “Haemolysis, %” value is reported as 100.0%.
